How the values were obtained:
[1] = tested on: middle cerebral artery occlusion in rats; assay: Middle cerebral artery occlusion by ligation in rats, infarction area; format: in vivo; settings: MCAo, suspended in CMC 1.5%; for % Infarction Area: Only CMC = 100.00; for Infarction Area in mm^2: Only CMC control 38.5
Text: Brain Res. 2012 Oct 5;1477:45-58]. Using such a method the maximum ineffective dose of the two substances, ultramicronized palmitoylethanolamide and cytidinediphosphocholine, administered separately orally suspended in carboxymethyl cellulose at 1.5% was initially sought. In the maximum ineffective doses found, the two substances were then mixed and administered together again suspended in CMC at 1.5%. The results obtained are collected in the following table 1 and the data of the synergic association between PEA and Citicoline are presented in FIGS. 1A-1B and FIGS. 2A-2B. FIGS. 1A-1B show images of coronal sections after occlusion of the middle cerebral artery (MCAo) in the absence (FIG. 1A), or in the presence of the combined treatment described above (FIG. 1B). FIG. 2 highlights the detected measurements of the infarctual area (FIG. 2A) and volume (FIG. 2B) in the absence or in the presence of the treatment.

[2] = tested on: stroke model from ligation of the middle cerebral artery; settings: preclinical, optimal dose of 10 mg/kg; cited from earlier work
cranial trauma model = settings: preclinical, optimal dose of 10 mg/kg; cited from earlier work
[3] = tested on: dementia from damage due to beta amyloid; settings: preclinical, optimal dose of 10 mg/kg; cited from earlier work

CCCCCCCCCCCCCCCC(=O)NCCO [PEA-um, palmitoylethanolamide]
% Infarction Area ([1]; 1 mg/kg orally): 99.22%
Infarction Area in mm^2 ([1]; 1 mg/kg orally): 38.2 mm^2

CCCCCCCCCCCCCCCC(=O)NCCO [palmitoylethanolamide]
effect in the stroke model [2]: substantial effect
effect in the cranial trauma model (cranial trauma model): substantial effect
effect in the model of dementia from damage due to beta amyloid [3]: substantial effect

C[N+](C)(C)CCOP(=O)(O)OP(=O)([O-])OC[C@H]1O[C@@H](n2ccc(N)nc2=O)[C@H](O)[C@@H]1O [Citicoline, Cytidine-diphosphocholine]
% Infarction Area ([1]; 50 mg/kg orally): 99.48%
Infarction Area in mm^2 ([1]; 50 mg/kg orally): 38.3 mm^2

Reference: US20160045529A1, “Pharmaceutical Compositions Containing Palmitoylethanolamide And Cytidine-Diphosphocholine And Methods Of Treatment Therewith” (EPITECH GROUP S.R.L., priority 2014, published 2016)
